Results reported in patent publication US20220273588A1, “MONOAMINE OXIDASE B INHIBITORS FOR USE IN THE PREVENTION OR TREATMENT OF PROSTATE CARCINOMA” (TOXIE EUROPE INTELLIGENS KÉMIAI SZENZOROKAT KUTATÓ, …, priority 2019, published 2022).

How the values were obtained:
LNCaP cells [1] = test: MTS reduction viability assay on LNCaP cells; type: cell-based, human; conditions: MTS method
Protocol: (§1) RPMI-1640 (Lonza) medium with 10% heat-inactivated FBS (fetal bovine serum, Sigma) and 100 U/ml Penicillin/Streptomycin was used to grow the cells. Cells were treated with drugs freshly dissolved in RPMI medium. Treatment concentrations were determined by widening the concentration range. After 48 h of treatment, cell viability was also quantified using the MTS reduction assay (Promega) as well as a CellTiter-Glo kit (Promega) based on ATP level measurements.
In the MTS reduction method (CellTiter 96® AQueous One Solution Cell Proliferation Assay, Promega Corp, Madison, […].), 20 microliters of MTS reagent was used per sample according to the manufacturer's protocol, and after 120 minutes of incubation, absorbance was measured at 492 nm with a microplate reader.
In the studies, we modified the protocol of Gordon et al (2014) as follows: • A volume of 20 microliters per well was used from the MTS reagent as recommended by the manufacturer (10 microliters were used by Grodon et al.). • In our case, an incubation time of 120 min was used to increase accuracy (Gordon et al incubated for 60 min). […] During validation, measurements were performed with a given number of cells per well, and absorbance values were plotted as a function of cell number. A calibration line was placed on the data points by linear regression analysis and the R^2 coefficient of determination was determined. […]

LNCaP cells [2] = test: CellTiter-Glo (ATP level) viability assay on LNCaP cells; type: cell-based, human; conditions: for viability of LNCaP cells, summary of the study: concentration-dependent manner, 48 h; for viability of LNCaP cells: 48 hours of treatment
Protocol: as §1
(§2) The CellTiter-Glo assay based on ATP level measurements was performed according to the manufacturer's protocol of pipetting 100 microliters of Celliter-Glo reagent into wells containing 100 microliters of medium, then shaking for 2 minutes and incubating for another 10 minutes. The luminescence signal was then detected with a PerkinElmer AlphaLisa instrument.
To reproduce the literature data, we also used the unpaired t-test also used by Gordon et al (2014) to compare control and treated groups. […] For some results (LNCaP chlororlin MTS method and LNCaP rasagiline and selegiline CellTiter-Glo method) Kruskal-Wallis non-parametric one-way ANOVA method was used with Dunn test, while in other cases one-way ANOVA method was used with Bonferroni post hoc test.
(§3) In our experiments, we performed three parallel experiments, and the experiments were repeated to increase the number of items. For the statistical analysis of two separate experiments the results were pooled, however, the absolute values obtained during the luminescence measurements cannot be used to combine the results. This is because the CellTiter-Glo reagent loses its activity during storage and possible thaw-freeze cycles. Thus, a CellTiter-Glo reagent from a single source can give different relative luminescence values (RLUs) at the same cell number in two different experiments performed at different times. However, in one experiment, the RLU reliably gives the cell number, and accordingly, the percentage viability value of the treated condition relative to the control RLU can be determined with certainty; values from different experimental series can be combined.
(§4) During the evaluation, we normalized to the mean of the control of the given experiment, so the mean of the control was 100% and the percentage of each individual data point relative to the mean of the control was calculated accordingly. One-way ANOVA with Bonferroni post hoc test with p<0.05 significance level was used for statistical validation of viability changes as described above.

PC3 cells = test: CellTiter-Glo (ATP level) viability assay on PC3 cells; type: cell-based, human; conditions: 48 h; for viability of PC3 cells: CellTiter-Glo; for viability of PC3 cells, summary of the study: concentration-dependent manner
Protocol: as §1, §2
To support the applicability of the CellTiter-Glo viability assay method, we validated the method on a PC3 cell line. In this procedure, the measurement was performed with a given number of living cells per well, and the relative luminescence values obtained were plotted as a function of the cell number. A calibration line was placed on the data points by linear regression analysis, and based on the R2 value, it was determined that the relative luminescence value obtained during the measurement was directly proportional to the number of living cells (FIG. 1/C).
as §3, §4

human PC3 xenograft = test: Tumor growth in NSG SCID mouse human PC3 xenograft model; type: in vivo; conditions: 10 mg/kg i.p. once daily from day 14, day 21
Description: For our experiments, we used 25 3-month-old male NOD (Non Obese Diabetic) SCID (Severe Combined ImmunoDeficiency) Gamma mice (National Institute of Oncology Animal House). Immunodeficiency in these mice (Shultz et al, 1995) is associated with decreased T and B lymphocyte and NK cell function, as well as deficiency is developed in cytokine signaling pathways, in adaptive and innate immune systems. During the experiment, the animals were housed in the animal house of the János Szentágothai Research Center of the University of Pecs, and they were provided with standard rodent food and tap water ad libitum. The animals were kept at 20-24° C., 50-60% relative humidity, in a 12-12 hour dark-light cycle. […]
RPMI-1640 (Lonza) medium with 10% heat-inactivated FBS (Sigma) and 100 U/ml Penicillin/Streptomycin was used to proliferate the PC3 cell line (Wesel, Germany), which was also used for in vitro experiments. […] Cell counts were determined after trypan blue staining with a LUNA II automated cell counter (Logos Biosystems) and 50 million cells were resuspended in 5 ml PBS. […]
On days 4, 7, 11, 14, 18, and 21 of the experiment, the length (a) and width (b) of the growing tumor were measured with a caliper, and then the tumor volume was calculated using the following formula (J B Wu et al., J Clin Invest., 124, 2891-2908): […]

[3] = tested on: androgen-sensitive and castration-resistant human prostate cells; conditions: literature preclinical study; cited from earlier work
[4] = tested on: PC3 prostate carcinoma cell line; test: CellTiter-Glo viability assay on PC3 cells, selegiline, docetaxel and combinations; type: cell-based, human; conditions: 48 hours
Protocol: In our studies, we used a […] PC3 prostate carcinoma cell line. The culture of the cell line and the study of the effect of the combination of docetaxel and selegiline were performed as previously described, with the changes detailed below.
Selegiline, docetaxel, and selegiline+docetaxel combination studies were performed in parallel, simultaneously, with the same reagents, on a cell population from the same cell culture. For the selegiline, docetaxel and selegiline+docetaxel combination studies, the following changes were applied from the protocol according to the examples of the application: • Treatments with selegiline alone were performed at concentrations ranging from 250 μM to 1 mM (250 μM, 500 μM, 750 μM, 1 mM), while docetaxel alone was administered at a concentration of 1 μM. For combination treatments, 1 μM docetaxel was added to the concentrations corresponding to the selegiline treatments (250 μM selegiline+1 μM docetaxel, 500 μM selegiline+1 μM docetaxel, 750 μM selegiline+1 μM docetaxel, 1 mM selegiline+1 μM docetaxel). • For docetaxel and combination treatments, a 0.01% dimethyl sulfoxide (DMSO) solution prepared with complete RPMI medium (10% FBS, 100 U/ml Penicillin/Streptomycin; solution for culturing and treating PC3 cells) was used as a control. This was used as a solvent control, corresponding to the use of DMSO to prepare a 10 mM docetaxel stock solution. Thus, the 1 μM docetaxel treatments we used also contained 0.01% DMSO. • The change in cell viability induced by selegiline, docetaxel, and combinations thereof was measured after 48 hours with the CellTiter-Glo kit as previously described. • The experiments were performed in 3 different series, and for evaluation they were combined with the previously described normalization. Briefly, during the evaluation, we normalized to the mean of the untreated control in the given experiment, so the mean of the control was 100% and the percentage of each individual data point relative to the mean of the control was calculated accordingly. Because treatments with selegiline and docetaxel alone or in combination were performed in one experiment, we normalized to the mean of the untreated control without DMSO. […] A Shapiro-Wilk and Kolmogorov-Smirnov normality test was performed on the data set, followed by a one-way ANOVA test with a Holm-Sidak's multiple comparison test.

[5] = tested on: metastatic castration-resistant disease; conditions: patients; cited from earlier work

SMILES	viability of LNCaP cells, summary of the study (LNCaP cells [2])	viability of PC3 cells (PC3 cells; 1 mM)	viability of PC3 cells, summary of the study (PC3 cells)	rate of tumor growth compared to the group treated with physiological saline (human PC3 xenograft)	growth and proliferation of androgen-sensitive and castration-resistant human prostate cells [3]	viability of LNCaP cells (LNCaP cells [2]; 1 mM, CellTiter-Glo)	viability of LNCaP cells (LNCaP cells [2]; 10 mM, CellTiter-Glo)	viability of PC3 cells (PC3 cells; 10 mM)	other results
C#CCN(C)CCCOc1ccc(Cl)cc1Cl [clorgylin]	significantly reduced	significantly reduced	significantly reduced	significantly reduced	inhibited	–	–	–	viability of LNCaP cells (LNCaP cells [1]; 100 micromolar, 48 h of treatment): significantly reduced; viability of LNCaP cells, concentration dependence (LNCaP cells [1]; 48 h): concentration-dependent manner; viability of LNCaP cells, CellTiter-Glo compared with MTS method (LNCaP cells [2]; 48 h clorgylin treatment, CellTiter-Glo): results similar to the MTS method; viability of PC3 cells (PC3 cells; 100 micromolar): significantly reduced; growth of enzalutamide-resistant cells [3]: significantly reduced
CC(=O)O[C@@]12CO[C@@H]1C[C@H](O)[C@@]1(C)C(=O)[C@H](O)C3=C(C)[C@@H](OC(=O)[C@H](O)[C@@H](NC(=O)OC(C)(C)C)c4ccccc4)C[C@@](O)([C@@H](OC(=O)c4ccccc4)[C@H]21)C3(C)C [docetaxel]	–	–	–	–	–	–	–	–	cell viability compared to the DMSO control ([4]; 1 μM): significantly reduced cell viability; increase of overall survival, average [5]: 2-3 months
NNCCc1ccccc1 [phenelzine]	–	–	–	–	inhibited	–	–	–	–
C#CCN[C@@H]1CCc2ccccc21 [rasagiline]	significantly reduced	significant viability-reducing effect	significantly reduced	–	–	trend is also clearly observed	significant viability-reducing effect	significant viability-reducing effect	–
C#CCN(C)[C@H](C)Cc1ccccc1 [selegiline]	significantly reduced	significant viability-reducing effect	significantly reduced	significantly reduced	–	trend is also clearly observed	significant viability-reducing effect	significant viability-reducing effect	viability of PC3 cells, concentration dependence ([4]; 250 μM to 1 mM): concentration-dependent manner; viability of PC3 cells ([4]; 750 μM, Example 3 series): significant decrease in viability; viability of PC3 cells, effect of Example 1 ([4]; 1 mM, Example 3 series): reproduced
